# Assay results from patent US20110319405A1, “Treatment and prevention of diffuse parenchymal lung disease by selective active-site mTOR inhibitors” (The Board of Trustees of the Leland Stanford Junior …, priority 2010, published 2011).
# Columns and labels:
# [1] = biological target: mTORC2 (Homo sapiens, UniProt P42345); details: in vitro; cited from earlier work
# [2] = biological target: mTORC1 (Homo sapiens, UniProt P42345); details: in vitro; cited from earlier work
# [3] = mice, PP242 30 mg/kg oral daily
# Description: Six-week-old male C57BL/6 mice weighing between 20 to 23 g were obtained from The Jackson Laboratory (Bar Harbor, Me.) and all care was in accordance with the National Institutes of Health Guide for Animal Welfare Act. […] All mice were sacrificed on day 14 and the right lungs were first fixed by inflation with buffered 10% formalin solution, then incubated in the same solution for 24 hours. After paraffin-embedding, sections were processed, and stained with hematoxylin and eosin (H&E) for light microscopy. The left lungs were frozen in liquid nitrogen for subsequent analysis of hydroxyproline content.
# [4] = system: bleomycin-induced pulmonary fibrosis; assay: Murine model of bleomycin-induced pulmonary fibrosis
# Description: Murine model of bleomycin-induced pulmonary fibrosis. Six-week-old male C57BL/6 mice weighing between 20 to 23 g were obtained from The Jackson Laboratory (Bar Harbor, Me.) and all care was in accordance with the National Institutes of Health Guide for Animal Welfare Act. Mice were administrated 0.1 ml of sterile saline (N=5) or bleomycin (Blenoxane, Novaplus, 1.5 U/kg of body weight; VHA Inc., Nippon Kayaku Co., Tokyo, Japan) at day 0 via intratracheal instillation under anesthesia (Krishna, G. et al., Am J Pathol. 2001, 158, 997-1004). […] All mice were sacrificed on day 14 and the right lungs were first fixed by inflation with buffered 10% formalin solution, then incubated in the same solution for 24 hours. After paraffin-embedding, sections were processed, and stained with hematoxylin and eosin (H&E) for light microscopy. The left lungs were frozen in liquid nitrogen for subsequent analysis of hydroxyproline content.
# Histological Scoring of Fibrosis. The severity of fibrosis from each lung section was assessed by Ashcroft score (Ashcroft T. et al., J Clin Pathol, 1988, 41, 467-70). Briefly, the grade of lung fibrosis was scored on a scale from 0 to 8 by examining 30 randomly chosen fields per sample at a magnification of ×100. Criteria for grading lung fibrosis were as follows: grade 0, normal lung; grade 1, minimal fibrous thickening of alveolar or bronchiolar walls; grade 3, moderate thickening of walls without obvious damage to lung architecture; grade 5, increased fibrosis with definite damage to lung structure and formation of fibrous bands or small fibrous masses; grade 7, severe distortion of structure and large fibrous areas; grade 8, total fibrous obliteration of fields. If there was difficulty in deciding between two odd-numbered categories, the field would be given the intervening even-numbered grade.
# [5] = system: Akt (Ser473 and T308) phosphorylation; assay: Basal Akt phosphorylation in IPF fibroblasts (Western blot); assay type: cell-based, human; details: for suppression of basal Akt (Ser473) phosphorylation: dose-dependent, FIG. 1A/1B
# Description: (§1) Cell Culture and Reagents. Lung fibroblasts were isolated from patients undergoing surgical biopsy for the diagnosis of interstitial lung disease or lung transplant for IPF, and non-neoplastic tissue was obtained from patients undergoing surgical lung cancer resection, as described previously (Chang W. T. et al., J Biol Chem., 2001, 276, 2221-7). Fibroblasts were cultured in Dulbecco's modified Eagle's medium (DMEM) supplemented with 10% fetal bovine serum (FBS) at 5% CO2 at 37° C., and were used for studies for up to 5 passages after the initial preparation. For each experiment, cells were plated in culture vessels in DMEM complete medium and cultured until 70-80% in confluence, unless otherwise indicated.
# Lung tissue was obtained from patients undergoing surgical biopsy for the diagnosis of interstitial lung disease or lung transplant for IPF, and non-neoplastic tissue was obtained from patients undergoing surgical lung cancer resection. The tissue was minced into small pieces with a scalpel and digested with type I collagenase (1 mg/ml; Invitrogen) and hyaluronidase (125 units/ml; Sigma) at 37° C. with agitation for 18 h in Dulbecco's modified Eagle's medium (DMEM; Invitrogen) supplemented with 10% fetal bovine serum. The dissociated tissues were incubated without shaking for 5 min at room temperature, followed by the separation of cell-enriched supernatant into a new tube. The cell fraction was centrifuged at 250×g for 5 min, and the pellet was then resuspended in DMEM with 10% fetal bovine serum. […] Surviving fibroblasts were cultured in DMEM supplemented with 10% fetal bovine serum at 5% CO2 at 37 ° C. […]
# Western Blot Analysis. Western blot analysis and band intensity quantitation were performed as described previously (Chang W. T. et al., J Biol Chem., 2001, 276, 2221-7). Briefly, the protein concentration was measured by Bradford assay (Bio-Rad) according to the manufacturer's instructions. […] The blot was visualized by enhanced chemiluminescence (GE Healthcare) and analyzed using a Kodak Image Station 4000R system (Carestream Health, Rochester, N.Y.). […]
# [6] = system: TGF-β-stimulated control lung fibroblasts; assay: TGF-β-mediated induction of stromal proteins in control lung fibroblasts (Western blot); assay type: cell-based, human
# Description: as §1
# (§2) Western Blot Analysis. Western blot analysis and band intensity quantitation were performed as described previously (Chang W. T. et al., J Biol Chem., 2001, 276, 2221-7). Briefly, the protein concentration was measured by Bradford assay (Bio-Rad) according to the manufacturer's instructions. An equal amount of protein was separated by SDS-PAGE and transferred to polyvinylidene difluoride membrane. […] The blot was visualized by enhanced chemiluminescence (GE Healthcare) and analyzed using a Kodak Image Station 4000R system (Carestream Health, Rochester, N.Y.).
# In further studies, we examined if inhibition of mTORC1 and/or mTORC2 would limit TGF-β-mediated induction of stromal genes. […]
# [7] = system: IPF fibroblasts; assay: Basal expression of stromal proteins in IPF fibroblasts (Western blot); assay type: cell-based, human
# Description: as §1
# Lung tissue was obtained from patients undergoing surgical biopsy for the diagnosis of interstitial lung disease or lung transplant for IPF, and non-neoplastic tissue was obtained from patients undergoing surgical lung cancer resection. The tissue was minced into small pieces with a scalpel and digested with type I collagenase (1 mg/ml; Invitrogen) and hyaluronidase (125 units/ml; Sigma) at 37° C. with agitation for 18 h in Dulbecco's modified Eagle's medium (DMEM; Invitrogen) supplemented with 10% fetal bovine serum. The dissociated tissues were incubated without shaking for 5 min at room temperature, followed by the separation of cell-enriched supernatant into a new tube. The cell fraction was centrifuged at 250×g for 5 min, and the pellet was then resuspended in DMEM with 10% fetal bovine serum. […] Surviving fibroblasts were cultured in DMEM supplemented with 10% fetal bovine serum at 5% CO2 at 37 ° C. Each fibroblast culture was frozen at its earliest available passage and was used for studies for up to five passages. For each experiment, cells were plated in culture vessels in DMEM and cultured until 70-80% confluent, unless indicated otherwise. Cells were subjected to starvation by washing cells twice with 1× phosphate-buffered saline (PBS), followed by the addition of DMEM and 0.1% serum to each well and incubation for an additional 24 h. In the experiments for cell death induced by Glu-plasminogen (American Diagnostica Inc., Stamford, Conn.), phenol red-free DMEM was used.
# Western Blot Analysis. Western blot analysis and band intensity quantitation were performed as described previously (Chang W. T. et al., J Biol Chem., 2001, 276, 2221-7). Briefly, the protein concentration was measured by Bradford assay (Bio-Rad) according to the manufacturer's instructions. An equal amount of protein was separated by SDS-PAGE and transferred to polyvinylidene difluoride membrane. […] The blot was visualized by enhanced chemiluminescence (GE Healthcare) and analyzed using a Kodak Image Station 4000R system (Carestream Health, Rochester, N.Y.). […]
# [8] = system: Akt (Ser473 and T308) activation; assay: TGF-β-mediated activation of Akt in control lung fibroblasts (Western blot); assay type: cell-based, human
# Description: as §1, §2
# In further studies, we examined if inhibition of mTORC1 and/or mTORC2 would limit TGF-β-mediated induction of stromal genes.
# [9] = PP242 30 mg/kg oral daily from Day -1, bleomycin 1.5 U/kg intratracheal, Day 14, vs bleomycin alone
# [10] = mouse lung, PP242 30 mg/kg oral
# [11] = control lung fibroblasts + TGF-β
# [12] = TGF-β-treated control fibroblasts
smiles,measurement,setting,value
CC(C)n1nc(-c2cccc(C(=O)NC3=NCCS3)c2)c2c(N)ncnc21 [PP30],inhibition of mTOR in mTORC2,[1],inhibit
same,inhibition of mTOR in mTORC1,[2],inhibit
CC(C)n1nc(-c2cc3cc(O)ccc3[nH]2)c2c(N)ncnc21 [PP242],tolerability,[3],well tolerated
same,reduction in hydroxyproline content,[4]; [9],40%
same,reduction in the Ashcroft score,[4]; [9],70%
same,positive staining for picosirius red (marker of new collagen synthesis),"[4]; mouse lung after bleomycin, PP242 30 mg/kg oral",marked reduction
same,accumulation of α-SMA-positive fibroblasts following bleomycin,[4]; [10],inhibited
same,bleomycin-mediated induction of MTS1/S100A4,[4]; [10],significantly inhibited
same,bleomycin-mediated induction of PAI-1,[4]; [10],"a trend, but not a statistically significant inhibition"
same,bleomycin-mediated induction of SPARC,[4]; [10],significantly inhibited
same,bleomycin-mediated induction of matrix metalloproteinase 7/matrilysin 1 (MMP-7),[4]; [10],significantly inhibited
same,Ashcroft score (scale from 0 to 8),"[4]; saline+PP242 group, no bleomycin",zero
same,suppression of basal Akt (Ser473) phosphorylation,[5],suppressed
CO[C@H]1C[C@@H]2CC[C@@H](C)[C@@](O)(O2)C(=O)C(=O)N2CCCC[C@H]2C(=O)O[C@H]([C@H](C)C[C@@H]2CC[C@@H](O)[C@H](OC)C2)CC(=O)[C@H](C)/C=C(\C)[C@@H](O)[C@@H](OC)C(=O)[C@H](C)C[C@H](C)/C=C/C=C/C=C/1C [rapamycin],blocking of TGF-β induction of FN,[6]; [11],30%-50%
same,blocking of TGF-β induction of SPARC,[6]; [11],30%-50%
same,blocking of TGF-β induction of α-SMA,[6]; [11],30%-50%
same,inhibition of TGF-β induction of PAI-1,[6]; [11],30%
same,inhibition of type I collagen in the presence of TGF-β,"[6]; control lung fibroblasts + TGF-β, FIG. 2C",45%
same,inhibition of basal expression of type I collagen,[7],50%
O=c1[nH]c2ccccc2n1C1CCN(Cc2ccc(-c3nc4cc5[nH]cnc5cc4nc3-c3ccccc3)cc2)CC1 [Akti VIII],inhibition of TGF-β induction of FN (in words),[6]; [12],inhibited
same,inhibition of TGF-β induction of type I collagen (in words),[6]; [12],inhibited
same,suppression of basal FN expression (in words),[7]; FIG. 3C,suppressed
same,suppression of basal type I collagen expression (in words),[7]; FIG. 3C,suppressed
same,suppression of basal α-SMA expression (in words),[7]; FIG. 3C,suppressed
COc1ccc(-c2ccc3c(N4CCOCC4)nc(N4C[C@@H](C)O[C@@H](C)C4)nc3n2)cc1CO [Ku-0063794],inhibition of TGF-β induction of PAI-1,[6]; [11],30%
same,suppression of basal Akt (T308) phosphorylation,[5]; FIG. 1B,more effective than rapamycin or PP242
same,suppression of basal Akt (Ser473) phosphorylation,[5],suppressed
same,blocking of TGF-β activation of Akt (Ser473),[8],blocked
same,blocking of TGF-β activation of Akt (T308),[8],blocked
